Data on 1 substance can be found in patent publication US10648968B2, “In vitro test system to evaluate xenobiotics as immune-modulators of drug transport and metabolism in human hepatocytes” (XenoTech, LLC, priority 2011, dated 2020).

For series [1] the following is noted: in humans following LPS treatment; correlated with changes in TNF and IL-6; cited from earlier work.
Another series deals with CYP1A2. The note with it: co-cultures of hepatocyte and Kupffer cells, three livers, treated daily for 72 hours; phenacetin O-dealkylation by LC/MS/MS.
The next series has as its system CYP3A4. Particulars: co-cultures of hepatocyte and Kupffer cells, three livers, treated daily for 72 hours; testosterone 6β-hydroxylation by LC/MS/MS.

In the case of lipopolysaccharides [LPS], the “antipyrine (AP) clearance” value in series [1] is “changes”. Also, the CYP1A2 activity entry in the series on CYP1A2 was “decrease”. Further, in the series on CYP3A4, the CYP3A4 activity entry is on record as “decrease”.
